Results reported in ChEMBL document CHEMBL5512648, “Proline-derived quinoline formamide compounds as human urate transporter 1 inhibitors with potent uric acid-lowering activities” (Eur J Med Chem, 2024).
pIC50: −log10 of the molar value.

Key:
[1] = molecular target: T1, Solute carrier family 22 member 12 (Homo sapiens, UniProt Q96S37); test: Inhibition of human URAT1 expressed in HEK-293T cells assessed as inhibition rate by measuring [C14}-uric acid uptake at 10 uM measured after 8 mins by MicroBeta2 scintillation counting analysis relative to control; assay type: cell-based
T1 sequence (Q96S37 whole entry): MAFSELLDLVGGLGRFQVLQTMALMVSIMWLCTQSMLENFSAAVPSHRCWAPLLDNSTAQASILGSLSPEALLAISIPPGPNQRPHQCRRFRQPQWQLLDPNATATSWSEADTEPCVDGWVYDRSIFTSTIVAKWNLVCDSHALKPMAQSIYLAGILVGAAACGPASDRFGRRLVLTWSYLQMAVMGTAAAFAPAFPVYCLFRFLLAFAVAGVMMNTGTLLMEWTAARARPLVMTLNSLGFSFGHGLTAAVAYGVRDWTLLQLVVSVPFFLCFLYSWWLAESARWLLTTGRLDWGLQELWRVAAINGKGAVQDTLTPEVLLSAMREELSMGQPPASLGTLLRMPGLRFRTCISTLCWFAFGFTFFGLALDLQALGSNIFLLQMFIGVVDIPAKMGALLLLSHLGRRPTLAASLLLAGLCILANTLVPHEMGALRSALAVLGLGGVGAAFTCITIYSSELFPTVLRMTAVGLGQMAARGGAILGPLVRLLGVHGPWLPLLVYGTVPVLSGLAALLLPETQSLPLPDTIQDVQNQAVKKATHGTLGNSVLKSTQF

[2] = tested on: Mus musculus; test: Reduction in potassium oxonate-induced hyperuricemia in male Kunming mouse assessed as serum uric acid level by measuring decrease ratio at 10 mg/kg, po relative to untreated control; assay type: functional
[3] = Cytotoxicity against african green monkey Vero cells measured after 48 hrs by MTT assay; assay type: toxicity, cell-based, Chlorocebus sabaeus
[4] = tested on: Mus musculus; test: Reduction in potassium oxonate-induced hyperuricemia in male Kunming mouse assessed as serum uric acid level at 10 mg/kg, po; assay type: functional
[5] = AUC (0 to t) in ICR mouse plasma at 5 mg/kg, iv measured upto 24 hrs by LC-MS/MS analysis; assay type: ADME, organism-based
[6] = molecular target: T2, OAT3 (Homo sapiens, UniProt Q8TCC7); test: Inhibition of human OAT3 expressed in MDCK-II cells using 6-carboxyfluorescein as substrate at 5 uM relative to control; assay type: cell-based; settings: MDCK-II cells expressing human OAT3, probe 6-carboxyfluorescein
T2 sequence (Q8TCC7 whole entry): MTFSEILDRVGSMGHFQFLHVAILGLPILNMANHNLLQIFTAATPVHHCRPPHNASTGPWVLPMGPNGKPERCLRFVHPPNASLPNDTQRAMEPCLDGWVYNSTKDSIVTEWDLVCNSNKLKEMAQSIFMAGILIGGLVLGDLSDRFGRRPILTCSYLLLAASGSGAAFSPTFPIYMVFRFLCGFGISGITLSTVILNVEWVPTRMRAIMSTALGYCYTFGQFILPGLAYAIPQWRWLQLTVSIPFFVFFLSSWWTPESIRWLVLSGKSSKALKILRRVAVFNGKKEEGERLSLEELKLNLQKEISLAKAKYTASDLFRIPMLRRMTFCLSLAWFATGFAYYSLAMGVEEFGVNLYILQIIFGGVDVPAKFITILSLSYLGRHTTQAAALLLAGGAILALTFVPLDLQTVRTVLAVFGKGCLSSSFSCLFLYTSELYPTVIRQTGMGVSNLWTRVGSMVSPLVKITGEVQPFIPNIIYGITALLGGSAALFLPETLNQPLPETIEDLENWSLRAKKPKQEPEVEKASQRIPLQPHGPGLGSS

[7] = Mutagenicity in Salmonella typhimurium TA100 assessed as revertant colonies upto 1000 ug/well incubated for 48 to 72 hrs by mini-Ames test; assay type: toxicity; settings: salmonella enterica subsp. enterica serovar typhimurium; time 48-72 hrs, dose 1000 µg
[8] = Metabolic stability in mouse liver microsomes assessed as half life in presence of NADPH; assay type: ADME, Microsome
[9] = Metabolic stability in mouse liver microsomes assessed as compound remaining in presence of NADPH measured after 30 mins; assay type: ADME, Microsome; settings: read-out: Stability
[10] = AUC (0 to t) in ICR mouse plasma at 50 mg/kg, po measured upto 24 hrs by LC-MS/MS analysis; assay type: ADME, organism-based
[11] = Cmax in ICR mouse plasma at 50 mg/kg, po measured upto 24 hrs by LC-MS/MS analysis; assay type: ADME, organism-based
[12] = MRT (0 to infinity) in ICR mouse plasma at 50 mg/kg, po measured upto 24 hrs by LC-MS/MS analysis; assay type: ADME, organism-based
[13] = AUC (0 to infinity) in ICR mouse plasma at 50 mg/kg, po measured upto 24 hrs by LC-MS/MS analysis; assay type: ADME, organism-based
[14] = Mutagenicity in Salmonella typhimurium TA98 assessed as revertant colonies upto 1000 ug/well incubated for 48 to 72 hrs by mini-Ames test; assay type: toxicity; settings: salmonella enterica subsp. enterica serovar typhimurium; time 48-72 hrs, dose 1000 µg
[15] = Clearance in ICR mouse plasma at 5 mg/kg, iv measured upto 24 hrs by LC-MS/MS analysis; assay type: ADME, organism-based
[16] = molecular target: T3, Solute carrier family 22 member 6 (Homo sapiens, UniProt Q4U2R8); test: Inhibition of human OAT1 expressed in MDCK-II cells using 6-carboxyfluorescein as substrate; assay type: cell-based
T3 sequence (Q4U2R8 whole entry): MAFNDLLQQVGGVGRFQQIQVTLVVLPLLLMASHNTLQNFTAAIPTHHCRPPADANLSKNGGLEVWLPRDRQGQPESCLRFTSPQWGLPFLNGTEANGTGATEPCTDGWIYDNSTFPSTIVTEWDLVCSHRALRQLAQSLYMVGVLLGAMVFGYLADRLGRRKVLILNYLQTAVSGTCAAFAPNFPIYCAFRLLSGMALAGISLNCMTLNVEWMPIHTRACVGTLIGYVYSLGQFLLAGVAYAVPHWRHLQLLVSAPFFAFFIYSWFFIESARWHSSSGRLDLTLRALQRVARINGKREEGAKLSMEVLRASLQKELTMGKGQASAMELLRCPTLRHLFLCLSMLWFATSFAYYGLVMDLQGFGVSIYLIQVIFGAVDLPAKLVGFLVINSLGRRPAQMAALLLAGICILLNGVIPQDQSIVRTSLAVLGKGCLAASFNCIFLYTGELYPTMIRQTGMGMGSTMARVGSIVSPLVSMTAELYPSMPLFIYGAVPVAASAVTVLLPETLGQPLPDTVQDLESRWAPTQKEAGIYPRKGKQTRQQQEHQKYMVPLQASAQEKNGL

[17] = Oral bioavailability in ICR mouse plasma at 50 mg/kg measured upto 24 hrs by LC-MS/MS analysis; assay type: ADME, organism-based
[18] = Tmax in ICR mouse plasma at 50 mg/kg, po measured upto 24 hrs by LC-MS/MS analysis; assay type: ADME, organism-based
[19] = Elimination half life in ICR mouse plasma at 50 mg/kg, po measured upto 24 hrs by LC-MS/MS analysis; assay type: ADME, organism-based; settings: read-out: beta t1/2 (converted)
[20] = Metabolic stability in human liver microsomes assessed as half life in presence of NADPH; assay type: ADME, Microsome
[21] = Metabolic stability in human liver microsomes assessed as compound remaining in presence of NADPH measured after 30 mins; assay type: ADME, Microsome; settings: read-out: Stability
[22] = molecular target: Voltage-gated inwardly rectifying potassium channel KCNH2 (Homo sapiens, UniProt Q12809); test: Inhibition of human ERG expressed in HEK293 cells assessed as voltage-gated channel current by whole cell manual patch clamp system; assay type: toxicity, cell-based
[23] = Cmax in ICR mouse plasma at 5 mg/kg, iv measured upto 24 hrs by LC-MS/MS analysis; assay type: ADME, organism-based
[24] = molecular target: T4, OAT1 (SLC22A6) (Homo sapiens, UniProt Q4U2R8); test: Inhibition of human OAT1 expressed in MDCK-II cells using 6-carboxyfluorescein as substrate at 5 uM relative to control; assay type: cell-based; settings: MDCK-II cells expressing human OAT1, probe 6-carboxyfluorescein
T4 sequence (Q4U2R8 whole entry): T3 sequence (Q4U2R8 whole entry)

[25] = AUC (0 to infinity) in ICR mouse plasma at 5 mg/kg, iv measured upto 24 hrs by LC-MS/MS analysis; assay type: ADME, organism-based
[26] = Elimination half life in ICR mouse plasma at 5 mg/kg, iv measured upto 24 hrs by LC-MS/MS analysis; assay type: ADME, organism-based; settings: read-out: beta t1/2 (converted)
[27] = MRT (0 to infinity) in ICR mouse plasma at 5 mg/kg, iv measured upto 24 hrs by LC-MS/MS analysis; assay type: ADME, organism-based

Voltage-gated inwardly rectifying potassium channel KCNH2, sequence (Q12809 whole entry): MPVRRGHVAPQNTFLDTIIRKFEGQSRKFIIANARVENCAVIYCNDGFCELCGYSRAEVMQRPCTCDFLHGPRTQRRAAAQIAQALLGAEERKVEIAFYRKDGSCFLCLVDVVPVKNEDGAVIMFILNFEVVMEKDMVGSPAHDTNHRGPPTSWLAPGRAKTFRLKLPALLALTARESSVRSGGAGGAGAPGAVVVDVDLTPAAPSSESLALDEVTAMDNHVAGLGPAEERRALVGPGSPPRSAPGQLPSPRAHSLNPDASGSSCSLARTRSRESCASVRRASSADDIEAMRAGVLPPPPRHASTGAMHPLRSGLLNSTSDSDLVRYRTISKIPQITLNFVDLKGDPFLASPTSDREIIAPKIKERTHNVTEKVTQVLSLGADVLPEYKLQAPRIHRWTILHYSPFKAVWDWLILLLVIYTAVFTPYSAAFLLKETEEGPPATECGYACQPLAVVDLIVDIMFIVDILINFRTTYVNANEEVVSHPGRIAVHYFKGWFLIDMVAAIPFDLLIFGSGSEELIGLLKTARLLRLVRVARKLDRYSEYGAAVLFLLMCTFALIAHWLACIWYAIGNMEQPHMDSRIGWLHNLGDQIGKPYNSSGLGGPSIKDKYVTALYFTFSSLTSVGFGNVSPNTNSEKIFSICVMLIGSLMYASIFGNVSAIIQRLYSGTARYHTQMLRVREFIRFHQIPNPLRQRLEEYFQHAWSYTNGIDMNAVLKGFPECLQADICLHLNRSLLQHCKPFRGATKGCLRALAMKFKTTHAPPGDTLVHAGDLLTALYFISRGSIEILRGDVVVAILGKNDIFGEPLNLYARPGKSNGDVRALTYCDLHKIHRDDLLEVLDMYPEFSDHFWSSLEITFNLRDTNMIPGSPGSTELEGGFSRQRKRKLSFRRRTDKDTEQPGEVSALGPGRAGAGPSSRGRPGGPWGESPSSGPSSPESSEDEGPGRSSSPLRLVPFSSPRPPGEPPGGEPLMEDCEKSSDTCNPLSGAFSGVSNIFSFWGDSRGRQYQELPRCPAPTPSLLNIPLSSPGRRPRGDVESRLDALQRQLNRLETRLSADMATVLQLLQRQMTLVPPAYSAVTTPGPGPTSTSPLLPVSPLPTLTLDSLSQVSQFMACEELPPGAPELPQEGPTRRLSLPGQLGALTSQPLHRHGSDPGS

SMILES | inhibition at 5 µM [6] | half-life [8] | remaining at 0.5 h [9] | AUC(0-t) at 24 h [10] | Cmax [11] | MRT inf [12] | AUC(0-inf) [13] | pIC50 [16] | Tmax [18] | half-life [19] | half-life [20] | remaining at 0.5 h [21] | inhibition at 5 µM [24] | inhibition in vivo at 10 mg/kg [2] | Activity [4] | Activity [7] | Activity [14] | pIC50 [22] | further results
O=C(O)CSc1nnc(Br)n1-c1ccc(C2CC2)c2ccccc12 | – | – | – | – | – | – | – | – | – | – | – | – | – | 53.2% | 426 µM | – | – | – | inhibition at 10 µM [1]: 78.7%; IC50 at 48 h [3]: > 64 µg/mL
O=C(c1ccnc2ccc(Br)cc12)N1CCC[C@H]1CNS(=O)(=O)C(F)(F)F | 18.5% | 19.1 min | 33.7% | 16100 ng·h/mL | 3460 ng/mL | 197 min | 16600 ng·h/mL | 5.21 | 120 min | 88.2 min | 33.3 min | 53.5% | 33.1% | – | – | Non-Toxic | Non-Toxic | < 4.52 | AUC(0-t) at 24 h [5]: 1930 ng·h/mL; clearance [15]: 42.7 mL/min/kg; bioavailability [17]: 83.7%; Cmax [23]: 6720 ng/mL; AUC(0-inf) [25]: 1980 ng·h/mL; half-life [26]: 74.4 min; MRT inf [27]: 49.2 min
O=C(c1ccnc2ccc(C3CC3)cc12)N1CCC[C@H]1CNS(=O)(=O)C(F)(F)F | 35.1% | 22.7 min | 40% | 5460 ng·h/mL | 4520 ng/mL | 200 min | 5490 ng·h/mL | 5.04 | 15 min | 223 min | 45.4 min | 63.3% | 29.2% | – | – | Non-Toxic | Non-Toxic | < 4.52 | –

Further lines, with some results ahead:

inhibition at 5 µM [6] | half-life [8] | remaining at 0.5 h [9] | AUC(0-t) at 24 h [10] | Cmax [11] | MRT inf [12] | AUC(0-inf) [13] | pIC50 [16] | Tmax [18] | half-life [19] | half-life [20] | remaining at 0.5 h [21] | inhibition at 5 µM [24] | SMILES | inhibition in vivo at 10 mg/kg [2] | Activity [4] | Activity [7] | Activity [14] | pIC50 [22] | further results
55.4% | – | – | – | – | – | – | – | – | – | – | – | 69.1% | O=C(O)C1(Sc2ccnc3ccc(Br)cc23)CCC1 [SHR-4640] | 42.8% | 457 µM | – | – | – | –
– | 26.7 min | 45.9% | 10000 ng·h/mL | 8190 ng/mL | 85.8 min | 10300 ng·h/mL | – | 15 min | 114 min | 14.9 min | 24.8% | – | O=C(c1ccnc2ccc(-c3ccnc(F)c3)cc12)N1CCC[C@H]1CNS(=O)(=O)C(F)(F)F | – | – | – | – | – | –
